This note sets out measurements from US9017645B2, “Homoglutamic acid derivatives” (Piramal Imaging SA, priority 2009, dated 2015).

The test deals with H460 cells. As to the kind of experiment: Cell-competition experiment: uptake of radiolabeled glutamic acid derivative into tumor cells. Type of test: cell-based, human. Conditions: competitor 1 mM and 0.1 mM, 30 min incubation in PBS. Here is the method:
FIG. 7: Biological activity of (2S)-2-Amino-5-(4-cyano-3-fluorobenzyl)hexanedioic acid in a cell-competition-experiment (H460 cells, 30 min incubation with radiolabeled glutamic acid derivative in PBS-Puffer, concentration of competitor 1 mM and 0.1 mM).
The ability of (2S)-2-Amino-5-(4-cyano-3-fluorobenzyl)hexanedioic acid to compete with uptake of glutamic acid derivatives into tumor cells was examined. Therefore, tumor cells were co-incubated with a radiolabeled glutamic acid derivative and (2S)-2-Amino-5-(4-cyano-3-fluorobenzyl)hexanedioic acid. This compounds was used in large excess to the tracer. Two concentrations were examined (1 mM an 0.1 mM).

Each structure is given as a SMILES string.

For the compound `N#Cc1ccc(CC(CC[C@H](N)C(=O)O)C(=O)O)cc1F` (stereo partly drawn) [(2S)-2-Amino-5-(4-cyano-3-fluorobenzyl)hexanedioic acid], the “uptake of radiolabeled glutamic acid derivative into tumor cells (competition)” value is “strongly reduces the uptake”.
